Assay [1] concerns the target T1, recombinant aSyn fibrils (Homo sapiens, UniProt P37840). Details: method as in PMID 40256311. To be noted: in vitro binding properties of lead M503-1619; cited from earlier work.
The target of the next assay is T2, Aβ (Homo sapiens, UniProt P05067).
T2 construct: from tissue; host or cells: Alzheimer disease (AD) brain tissue homogenate
Details: method as in PMID 40256311. The note with it: in vitro binding properties of lead M503-1619; cited from earlier work.

Assay [2] deals with T1, recombinant aSyn fibrils. Nature of the assay: In vitro radioligand binding assay with [^3H]BF2846 in recombinant aSyn fibrils.
Experimental: The affinity of the target compounds for aSyn was performed in recombinant human fibrils using an in vitro radioligand binding assay with [^3H]BF2846 as the radioligand, which binds to site 9 in recombinant aSyn fibrils [16].
In vitro radioligand biding assays were performed by using the pervious published method [12, 15] to measure the affinity of the target compounds for aSyn and Aβ. In brief, the radioligand for the aSyn assay was [^3H]BF2846 and the assay was conducted using recombinant fibrils. Three concentrations of test compounds (10 nM, 100 nM and 1 µM) were incubated with ~4 nM [^3H]BF2846 and 50 nM aSyn fibrils in a working buffer (50 mM Tris-HCl, 0.01% bovine serum albumin) at 37 °C for 1.5 h. The mixture (150 µL) was separated by filtration through a Unifilter-96 system (PerkinElmer, Shelton, CT, USA) and washed with an ice-cold buffer (10 mM Tris-HCl (pH 7.4), 15 mM NaCl and 20% EtOH) before scintillation counting. Total binding was defined in the absence of competitor, and non-specific binding was determined using 100 nM unlabeled BF2846. […] Data from three independent experiments were analyzed by non-linear regression in GraphPad Prism v.9.3.1 (GraphPad Inc., San Diego, CA, USA) to calculate Ki values using the equation, Ki = EC50/(1 + [radioligand]/Kd).

Our source for the Ki values is publication PMC13416357 (Molecules, 2026).

Like-named read-outs stand apart in the source and are kept apart here.

What is called Ki is a dissociation constant, usually derived from enzyme kinetics or from competition with a known ligand.

T2 sequence (P05067 672-713 limits assumed): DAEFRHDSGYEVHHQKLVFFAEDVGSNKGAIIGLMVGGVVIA

On to `COc1ccc(NC(=O)c2cnc(N3CCN(c4ccccn4)CC3)nc2N)cc1` [Compound M503-1619], for which the Ki was 6.5 nM on recombinant aSyn fibrils [1] and 390 nM on Aβ.
As to `COc1ccc(NC(=O)c2cnc(N3CCN(c4ncccn4)CC3)nc2N)cc1` [GT-9-40], on recombinant aSyn fibrils [2], the Ki stood at 41.9 ± 13.8 nM.
